Measured values from patent US6500815B1, “Substituted 11.beta steroid derivatives, method for preparing same and intermediates of said method, use as medicine and compositions containing them” (Aventis Pharma S.A., priority 1999, dated 2002).

The molecules below were run against αvβ3 human receptor (vitronectin receptor) (Homo sapiens, UniProt P05106+P06756) (assay: Competition binding test: displacement of the vitronectin/vitronectin receptor (αvβ3) bond). Details: human vitronectin coated at 2 μg/ml, 3 hours incubation at ambient temperature, 4B12-HRP antibody detection, OD 450 nm, read-out: Competition binding test Vn/VnR (αvβ3) IC50.
Protocol: 1—Study by the Products of the Invention of the Bond Displacement: Vitronectin/Vitronectin Receptor (αvβ3) Protocol 96 well MaxiSorp plates are coated overnight at 4° C., with 100 μl of human vitronectin (cf Yatohgo et al. Cell., Structure and fraction 13: 281-292 (1988) at 2 μg/ml, (dilution in coating buffer).
The following day, the wells are emptied and the ligands (vitronectin) are then fixed (see fixation buffer) for 1 hour at ambient temperature under gentle agitation. The wells are washed six times (see washing buffer), then per well and in this order the following are added:
40 μl of incubation buffer, 10 μl of the diluted product to be tested, (the products are diluted in a 50/50 mixture of DMSO-H2O) 20 μl of αvβ3 human receptor (cf Pytela et al. Methods Enzymol (1987) 144:475) (dilution in incubation buffer, to be adapted according to the batch of receptor and according to the ligand).
The ligand, the αvβ3 human receptor and the products to be studied are incubated for 3 hours at ambient temperature under gentle agitation.
The wells are again washed six times, then incubated for 2 hours at ambient temperature under gentle agitation, in the presence of 100 μl of 4B12-HRP antibody, anti-receptor coupled to a peroxydase (the 4B12-HRP antibody is diluted in incubation buffer. The dilution is to be adapted according to the batch of receptor).
The wells are then washed six times before measurement of the ligand-receptor bond done by the intermediate of a peroxydase visualizing kit (TMP Microwell Peroxydase Substrate System Kirkegaard: Ref. cat. 50-76-00). This kit contains a flask A of substrate (3,3′,5,5′-tetra-methylbenzidine at 0.4 g/l) and a flask B (H2O2 at 0.02% in Citrate/Citric acid buffer). Extemporaneously, a volume of A is mixed with a volume of B, then the reaction mixture is distributed at a rate of 100 μl/wells. The enzymatic reaction develops in 12′ for Vitronectin/αvβ3, and then its evolution is stopped by the addition of 100 μl of 1M phosphoric acid.
The optical density is measured at 450 nm. […]
coating buffer: 0.05 M carbonate, NaOH pH 9.6 fixation buffer: PBS containing 0.5% of BSA (pH 7.4) washing buffer: PBS containing 0.05% of Tween 20 (pH 7.4)
Expression of the Results: the following curve is drawn: the bonding percentage of human vitronectin as a function of the logarithm of the concentration of each product tested. For each product the IC50 is determined according to the following formula:
BO=Maximum bond in the absence of any product
Bmin=Minimum bond in the presence of the highest concentration of the product.

Row | Compound | IC50
1 | C[C@]12C[C@H](CCCCC(=O)O)C3=C4CCC(=NNC(=N)N)C=C4CC[C@H]3[C@@H]1CCC2=O (mixture of isomers) [Example 4, 3-[(Amino-iminomethyl)hydrazono]-17-oxoestra-4,9-dien-11-beta-pentanoic Acid] | 133 nM
2 | C[C@]12C[C@H](CCCCCC(=O)O)C3=C4CC/C(=N\NC(=N)N)C=C4CC[C@H]3[C@@H]1CCC2=O [Example 5a ΔE, 3-[(Amino-iminomethyl)hydrazono]-17-oxo-estra-4,9-diene-11-beta-hexanoic Acid] | 54 nM
3 | C[C@]12C[C@H](CCCCC(NC(=O)OCc3ccccc3)C(=O)O)C3=C4CCC(=NNC5=NCCN5)C=C4CC[C@H]3[C@@H]1CCC2=O (mixture of isomers) [Example 2, 3-[(4,5-Dihydro-1H-imidazol-2-yl)hydrazono]-17-oxo-α-[[(phenylmethoxy)carbonyl]amino]-estra-4,9-diene-11-beta-hexanoic Acid] | 30 nM
4 | C[C@]12C[C@H](CCCCCC(=O)O)C3=C4CCC(=NNC5=NCCN5)C(Cl)=C4CC[C@H]3[C@@H]1CCC2=O [Example 8, 4-Chloro-3-[(4,5-dihydro-1H-imidazol-2-yl)hydrazono]-17-oxo-estra-4,9-diene-11-beta-hexanoic Acid] | 17 nM
5 | CC12CC(CCCCC(NC(=O)OCc3ccccc3)C(=O)O)C3=C4CCC(=NNC5=NCCN5)C=C4CCC3C1CCC2O (stereo not drawn) [Example 3, 3-[(4,5-Dihydro-1H-imidazol-2-yl)hydrazono]-17-hydroxy-alpha.-[[(phenylmethoxy)carbonyl]amino]-estra-4,9-diene-11-beta-hexanoic Acid] | 70 nM
6 | C[C@]12C[C@H](CCCCCC(=O)O)C3=C4CCC(=NNC5=NCCCN5)C=C4CC[C@H]3[C@@H]1CCC2=O (mixture of isomers) [Example 6a 90/10, 3-[(1,4,5,6-Tetrahydro-2-pyrimidinyl)-hydrazono]-17-oxo-4,9-diene-11-beta-hexanoic Acid] | 20 nM
7 | C[C@]12C[C@H](CCCCCC(=O)O)C3=C4CC/C(=N/NC(=N)N)C=C4CC[C@H]3[C@@H]1CCC2=O [Example 5b ΔZ, 3-[(Amino-iminomethyl)hydrazono]-17-oxo-estra-4,9-diene-11-beta-hexanoic Acid] | 375 nM
8 | C[C@]12C[C@H](CCCCCC(=O)O)C3=C4CCC(=NNC5=NCCCN5)C=C4CC[C@H]3[C@@H]1CCC2=O (mixture of isomers) [Example 6b 60/40, 3-[(1,4,5,6-Tetrahydro-2-pyrimidinyl)-hydrazono]-17-oxo-4,9-diene-11-beta-hexanoic Acid] | 38 nM
9 | C[C@]12C[C@H](CCCCCC(=O)O)C3=C4CCC(=NNC(=N)N)C(Cl)=C4CC[C@H]3[C@@H]1CCC2=O [Example 9, 3-[(Aminoiminomethyl)hydrazono]-4-chloro-17-oxo-estra-4,9-diene-11-beta-hexanoic Acid] | 1950 nM
10 | C[C@]12C[C@H](CCCCCC(=O)O)C3=C4CCC(=NNC5=NCCN5)C=C4CC[C@H]3[C@@H]1CCC2=O (mixture of isomers) [Example 7, 3-[(4,5-Dihydro-1H-imidazol-2-yl)-hydrazono]-17-oxo-estra-4,9-diene-11-beta-hexanoic Acid] | 25 nM
